Source: patent publication US20060135415A1, “Immunomodulation and effect on cell processes relating to serotonin family receptors and the blood-brain barrier” (priority 2002, published 2006)
Entries after “also recorded” stand apart in the source; their conditions may differ.

How the values were obtained:
[1] = system: ConA stimulated human lymphocytes; experiment: Human mitogenic (ConA) stimulation, 3H-thymidine incorporation; assay type: cell-based; settings: for activation / proliferative response: 5 μg/ml ConA, harvest 72 hours, drug titration (FIGS. 7A, 8A, 9A, 17, 33)
Protocol: Blood from healthy volunteers was drawn using venipuncture, using Vacutainer collection sets and heparinized collection vials. The blood was diluted 1:1 using HBSS to a total volume of 30 ml in 50 ml conical tubes (Fisher Scientific, Co., Pittsburgh, Pa.). […] Cells from the buffy coats were collected and the residual Histopaque was washed away using repeated centrifugations in HBSS. After washes, cells were resuspended at 5 million cells per ml in RPMI, supplemented with 2% FBS. To remove adherent cells, the suspension was plated onto a 6 well flat-bottom plate (Corning Costar), 3 ml/well, and incubated for 2 hours at 37° C., 5% CO2. Non-adherent cells were harvested after this incubation, were counted and resuspended in RPMI supplemented with 10% human serum (Sigma).
All drugs were pre-plated before the cell suspension was added onto each well of a 96-well round-bottom plate. All experimental conditions were assayed in at least triplicate. Cells suspended in RPMI supplemented with 10% human serum were plated at 100,000 cells per well to a final volume of 200 μl. […] Control samples received no ConA stimulation. The plates were incubated at 37° C. and 5% CO2.

[2] = system: allogeneic stimulation of human lymphocytes; experiment: Human mixed lymphocyte reaction (allogeneic stimulation), 3H-thymidine; assay type: cell-based; settings: allogeneic stimulation, harvest 120 hours, drug titration (FIGS. 7B, 8B, 9B)
Excerpt: Blood from two healthy, non-related, donors was taken as described above. Peripheral blood mononuclear cells were isolated as described previously elsewhere. The adherent cells were separated from the suspension cells as described previously for both donors. Suspension cells from both donors (donors A and B) were used as responders. The remaining adherent cells from each of the donors were used as stimulators against a different donor (suspension A against adherent B and adherent A against suspension B). The stimulator cells were irradiated at 35 Gy. Drugs were pre-plated onto 96 well, U-bottom plates in triplicate. 200,000 “stimulator” cells in RPMI supplemented with 10% human serum were then plated in each well. 200,000 “responder” cells in the same medium were then plated over stimulators to a final volume of 200 μl/well. Background controls received either no stimulator cells, or no responder cells. The plates were incubated at 37° C. and 5% CO2. 1 μCi of tritiated thymidine was added to each well after 4.5 days, and the plates were harvested 12 hours later.

[3] = system: allogeneic CTL response against P815 cells; experiment: Murine allograft model, CTL killing of P815 target cells by splenocytes; assay type: in vivo, C57BL/6J mice; settings: Cyclosporin A 100 μg ip daily from day −2; for allograft (CTL) response: 5HT antagonists 200 μg/injection tail vein days 6 and 8, sacrifice day 14 (FIGS. 13, 14); for allogeneic killing response: serotonin-specific compounds 300 μg/injection tail vein days 5 and 7, sacrifice day 14 (FIGS. 18A, 18B)
Protocol: The in vivo validation screen used was an art-recognized murine allogeneic rejection model as described in Zhan et al., 2000. For this assay, a complete MHC miss-match system was employed wherein 5×10^6 P815 cells ([H-2^d] DBA/2 mastocytoma) were injected into the peritoneal cavity of C57BL/6J (H-2^b) mice on day 0 of the experiment. These mice typically generate a strong cytotoxic T lymphocyte (CTL) reaction in response to P815 cells. Following the initial P815 cell inoculation, the mice were allowed to develop a CTL response (this usually takes about 10-14 days). […] Mice were then sacrificed on day 14 of the experiment as indicated in the figures; and the allogeneic CTL response was assayed as described previously (Tretiakova et al., 2000, Nature Biotechnology 18:984-988). The primary spleen cells from the treated and untreated animals were used in the direct CTL readout. Freshly obtained primary spleen cells were incubated with the [^3H] labeled target cells (P815 cells) at 100:1, 50:1, 25:1, and 12.5:1 ratios for 3.5 hours at 37° C. and harvested using a PHD harvester. The percentage of specific killing was determined using the formula % kill=(S−E)/S, where S is the amount of the DNA retained by the target cells in the absence of the effector cells and E is the amount of retained DNA in the presence of the effector cells (expressed in counts per minute; cpm).
This is an art-recognized model of allograft […] rejection based on that described by […]. (2000). In this model, there is a complete MHC mismatch between the P815 cells (H-2^d) and the C57BL6 mouse (H-2^b), thus ensuring an aggressive immune response. The data disclosed in FIG. 13, depicts results of experiments that included 6 treatment groups, each group consisting of three mice. Each mouse received 5×10^6 P815 cells injected into the peritoneal cavity on day 0 of the study. The first group was an untreated control group, which was used to establish the baseline response of the mice against the allogeneic stimulus. These mice, without any further treatments, were sacrificed, as were the other treatment groups, on day 14 of the study and their splenocytes assayed for target-specific killing of the P815 cells.
The average kill observed for the untreated group was about 45% at an effector to target ratio of 100:1. The second group was treated with risperidone, a 5HT-2 antagonist, administered via a tail vein bolus injection (200 μg/injection) on days 6 and 8 of the study. The timing of the drug administration was selected to ensure that the T cells were fully activated prior to the drug treatment. The third group was treated with propanolol, a 5HT-1 antagonist. All of the 5HT receptor antagonist-treated groups were treated as described for the risperidone-treated group. The fourth group was treated chronically with CyclosporinA. The Cyclosporin A was administered ip at a dosage of 100 μg/injection starting two days prior to the onset of the study, i.e., at day −2, and the injections were continued on a daily basis for the duration of the study.
Finally, studies conducted in vivo using the CD8-dependent allograft rejection model, in which P815 cells (a rapidly growing cell line taken from a mastocytoma in a DBA mouse), were expanded and used to create a robust rejection response in a C57BL6 mouse. In this study the mice received 5×10^6 P815 cells injected into their peritoneal cavity on day 0 of the study. The first group was an untreated control group (naïve animals), used to acquire the baseline response of the mice against the allogeneic stimulus. The positive controls were treated with the allogeneic cells without any further treatments. These animals were used to assess the induced allogeneic response against the P815 cells. […]

RPMI-8226 cells = experiment: Cytospin histochemistry (H&E, bis-benzamide) for chromatin; assay type: cell-based, human; settings: 9 hour treatments, 50 μM SB compounds, 2 μM camptothecin (FIGS. 28, 29)
Protocol: 2.0×10^5 RPMI-8226 cells were cultured, in 6-well culture plates, in the presence of the indicated drug concentrations, in a total of 5 mL RPMI-1640 supplemented with 10% FBS. Each well was harvested in its entirety and divided into two identical samples for cytospins.
1.0×10^5 RPMI-8226 cells from each treatment group were loaded into Cyto-funnels and centrifuged at 500 rpm for 4 minutes with medium acceleration. Slides were then fixed through graded methanol in PBS (100%, 5 minutes; 80%, 5 minutes; 50%, 5 minutes), washed for 5 minutes in PBS and stored in PBS at 4° C. until stained.
Cytospun slides were stained with Hematoxylin and Eosin, followed by the nuclear stain, bis-benzamide, rinsed and mounted according to standard staining protocols. Slides were visualized under both brightfield and fluorescent light to generate matched images of the same slide field (see, e.g., FIGS. 28 and 29).

[4] = system: RPMI 8226 multiple myeloma cells; experiment: RPMI 8226 cell viability and proliferation (trypan blue, MTT, 3H-thymidine); assay type: cell-based, human; settings: 3H-thymidine uptake, drug titration (FIGS. 19-25, 31, 32)
Protocol: The human plasmacytoma (multiple myeloma) cell line, RPMI 8226 (American Type Culture Collection, Manassas, Va.), was cultured in RPMI 1640 supplemented with 10 mM HEPES, 1 mM sodium pyruvate, 4.5 g/L glucose, 1.5 g/L bicarbonate and 20% FBS (non-heat inactivated).
Cell proliferation was assayed by three methods—Trypan Blue Exclusion was used to quantify the number of viable cells in culture; 3-(4,5-dimethylthiazol-2-yl)-2,5-diphenyl tetrazolium bromide (MTT) reduction was used to assay mitochondrial activity (and thus cell viability); and ^3H-Thymidine uptake was employed to assay for active DNA synthesis.
Three separate indicators of cell proliferation were employed to study the effects of 5-HT receptor modulating agents on the human multiple myeloma cell line, RPMI 8226. Cells were plated at 4 separate densities and were treated with LY53587 (an antagonist of the 5-HT2A/2B/2C receptors) at a range of concentrations. The exclusion of trypan blue dye was used as an indicator of cell viability. Cell numbers were then plotted against the concentration of drug added.
MTT reduction was also used as an indicator of cell viability (more specifically, mitochondrial activity). Absorbance values at OD570 were then plotted against drug concentration. Finally, DNA synthesis was assayed, through the measurement of ^3H-thymidine uptake, and counts per minute (CPMs) were plotted against drug concentration.
Culturing and administration of drugs and ^3H-thymidine were performed as described elsewhere herein.

## N[C@@H](Cc1ccc(Cl)cc1)C(=O)O (racemic) [PCPA, para-chlorophenylalanine]
[1]; human PBLs, 1 μg/ml ConA, PCPA titration (FIG. 3)
  mitogenic response: inhibits the mitogenic response in a dose-dependent manner

## N[C@@H](Cc1c[nH]c2ccc(O)cc12)C(=O)O [5-hydroxytryptophan]
[1]; 25 μM, in the absence of PCPA (FIG. 3)
  proliferation response: significantly enhanced the proliferation response
[1]; added to PCPA-inhibited cells (FIG. 3)
  reversal of PCPA inhibition of mitogenic response: this inhibition can be reversed

## OC(CN1CCN(c2cccc(Cl)c2)CC1)C(c1ccccc1)c1ccccc1 (stereo not drawn) [BRL 15572]
[1]
  activation / proliferative response: had no effect upon the proliferative response
[2]
  activation / proliferative response: had no effect upon the proliferative response

## CC(O)C(C)OC(=O)[C@@H]1C[C@@H]2c3cccc4c3c(cn4C(C)C)C[C@H]2N(C)C1 (stereo partly drawn) [LY 53857]
[1]
  activation / proliferative response: inhibit the activation response at pharmacologically relevant concentrations
[2]
  activation / proliferative response: inhibit the activation response at pharmacologically relevant concentrations

## Cn1ccc2cc3c(cc21)CCN3C(=O)Nc1cccnc1 [SB 206553]
[3]
  allograft (CTL) response: Two of the treated mice had the allogeneic response completely suppressed; also recorded: Two of the three treated mice inhibited the allograft response to a degree equivalent to that observed in the Cyclosporin A-treated animals
  allogeneic killing response: striking
[3]; listed as SB206553
  allograft (CTL) response: inhibited the allograft response to varying degrees
[1]
  activation / proliferative response: inhibit the activation response at pharmacologically relevant concentrations
  in vitro activation / proliferation of (helper) T cells: immediate cessation of proliferation
[2]
  activation / proliferative response: inhibit the activation response at pharmacologically relevant concentrations

## Cc1cc2c(cc1Cl)N(C(=O)Nc1ccc(Oc3cccnc3C)nc1)CC2 [SB 242084]
RPMI-8226 cells
  chromatin condensation / fragmentation (apoptosis): induced programmed cell death comparable to that induced by the topoisomerase I inhibitor, camptothecin
RPMI-8226 cells; listed as SB242084
  chromatin condensation / fragmentation (apoptosis): condensed and fragmented chromatin
[4]
  growth / proliferation of RPMI 8226 cells: strong inhibition of growth
[1]; 1 μg/ml ConA, harvest 72 h, drug added at time=0 or 48 hours (FIG. 12)
  inhibitory profile on mitogenic stimulation: retained the complete inhibitory profile
[1]
  activation / proliferative response: inhibit the activation response at pharmacologically relevant concentrations
[2]
  activation / proliferative response: inhibit the activation response at pharmacologically relevant concentrations

## COc1ccccc1N1CCN(CCN(C(=O)C2CCCCC2)c2ccccn2)CC1 [WAY 100635]
[1]
  in vitro activation / proliferation of (helper) T cells: significantly inhibits the activation response

## CC[C@@]1(O)C(=O)OCc2c1cc1n(c2=O)Cc2cc3ccccc3nc2-1 [camptothecin]
RPMI-8226 cells
  chromatin condensation / fragmentation (apoptosis): Extensive chromatin condensation and nuclear fragmentation

## CSc1ccc2c(c1)C(N1CCN(C)CC1)Cc1ccccc1S2 (stereo not drawn) [methiothepin]
[4]
  growth / proliferation of RPMI 8226 cells: strong inhibition of growth
[1]
  activation / proliferative response: inhibit the activation response at pharmacologically relevant concentrations
[2]
  activation / proliferative response: inhibit the activation response at pharmacologically relevant concentrations

## CC[C@@H](CO)NC(=O)[C@@H]1C=C2c3cccc4c3c(cn4C)C[C@H]2N(C)C1 [methysergide]
[3]
  allograft (CTL) response: inhibited the allograft response to varying degrees
  allogeneic killing response: complete inhibition of the induced killing response; also recorded: abrogated the allogeneic killing response; also recorded: inhibition profile was striking

## NNCCc1ccccc1 [phenelzine]
[1]; 0.1 and 1 μg/ml ConA (FIGS. 5A, 5B)
  drug concentration giving significant inhibition: 10 to 100 µM
[1]; higher ConA stimulation (10 μg/ml)
  drug concentration at which full inhibition occurs: 100 to 400 µM
[1]; highest ConA dose 10 μg/ml, harvest 72 hours (FIG. 5C)
  proliferative response: no inhibition was observed
[1]; reagents at 400 μM, time course (FIG. 4)
  stimulation of ConA-activated human PBLs: completely shut down the stimulation
